According to US5300672A (priority 1992, dated 1994):
Like-named read-outs stand apart in the source and are kept apart here.

Assays:
[1] = test system: Puccinia recondita (f. sp. tritici Races PKB and PLD); test: whole plant or invertebrate; assay type: in vivo
Pseudomonas fluorescens = test: Alternate Minimum Inhibitory Concentrations Test (Table 4), Ps.fl; assay type: cell-based; settings: Table 4 alternate test, 250 ppm to 0.8 ppm in TSB, 72 hours, 30° C.; for MIC: Pseudomonas fluorescens, read-out: MIC Ps.fl
Procedure, shortened: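 MIC taken as lowest concentration showing no growth after 72 h incubation at 30 °C in TSB. Twofold dilution series spanned 250 down to 0.8 ppm, wells inoculated with phosphate-buffer-diluted 24 h culture.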

[2] = test system: Pellicularia filamentosa (f. sp. sasiki); test: whole plant or invertebrate; assay type: in vivo
[3] = test system: Puccinia graminis (f. sp. tritici Race 15B-2); test: whole plant or invertebrate; assay type: in vivo
[4] = test system: Pseudoperonospora cubensis; test: whole plant or invertebrate; assay type: in vivo; settings: for pest or weed control at 12 ppm / pest or weed control at 200 ppm / pest or weed control at 50 ppm: Pseudoperonospora cubensis, in Cucumis sativus, 168 h, read-out: % Control CDM
Phytophthora infestans = test: whole plant or invertebrate; assay type: in vivo; settings: for pest or weed control at 200 ppm / pest or weed control at 100 ppm / pest or weed control at 25 ppm: Phytophthora infestans, in Solanum lycopersicum, 96 h; for pest or weed control at 25 ppm: read-out: % Control TLB, application rate 25 ppm
Piricularia oryzae = test: whole plant or invertebrate; assay type: in vivo; settings: for pest or weed control at 200 ppm / pest or weed control at 100 ppm: Pyricularia oryzae
[5] = test system: Erysiphe graminis (f. sp. tritici); test: whole plant or invertebrate; assay type: in vivo
[6] = Puccinia recondita, 240 h, read-out: % Control WLR
[7] = Puccinia graminis, 336 h, read-out: % Control WSR
[8] = read-out: % Control RB, application rate 200 ppm
[9] = Blumeria graminis, read-out: % Control WPM
[10] = read-out: % Control RB, application rate 100 ppm
[11] = read-out: % Control TLB, application rate 100 ppm

Row | Compound | pest or weed control at 200 ppm [1, 6] [%] | MIC (Pseudomonas fluorescens) [µg/mL] | pest or weed control at 200 ppm [3, 7] [%] | pest or weed control at 200 ppm (Phytophthora infestans; read-out: % Control TLB) [%] | pest or weed control at 200 ppm (Piricularia oryzae; [8]) [%] | pest or weed control at 100 ppm [1, 6] [%] | pest or weed control at 100 ppm ([2]; 120 h, read-out: % Control RSB) [%] | pest or weed control at 50 ppm [4] [%] | pest or weed control at 100 ppm (Phytophthora infestans; read-out: % Control TLB) [%] | pest or weed control at 100 ppm (Piricularia oryzae; [10]) [%] | pest or weed control at 100 ppm [5, 9] [%] | further results
1 | CCCCCCCCNC(=O)/C=C\SC(=O)c1ccc2ccccc2c1 [Compound 56, N-octyl-cis-3-[(2-naphthanoyl)thio]acrylamide] | 0 | > 250 | 75 | 80 | 0 |  |  |  |  |  |  | pest or weed control at 50 ppm ([2]; 120 h, read-out: % Control RSB): 80%; pest or weed control at 12 ppm [4]: 50%; pest or weed control at 200 ppm [5, 9]: 0%
2 | CCCCCCCCNC(=O)/C=C\SC(=O)c1cccc(OC)c1[N+](=O)[O-] [Compound 98, N-octyl-cis-3-[(2-nitro-3-methoxybenzoyl)thio]acrylamide] | 50 | > 250 |  | 90 |  |  |  |  |  |  |  | pest or weed control at 200 ppm ([2]; 120 h, read-out: % Control RSB): 0%; pest or weed control at 100 ppm [3, 7]: 0%; pest or weed control at 200 ppm [4]: 50%; pest or weed control at 200 ppm (Piricularia oryzae; read-out: % Control RB): 99%; pest or weed control at 50 ppm [5, 9]: 0%
3 | CCCCCCCCNC(=O)/C=C\SC(=O)c1ccc([N+](=O)[O-])o1 [Compound 17, N-octyl-cis-3-[(5-nitro-2-furoyl)thio]acrylamide] |  | > 250 | 95 |  |  | 0 | 0 | 50 | 90 | 80 | 0 | 
4 | CCCCCCCCNC(=O)/C=C\SC(=O)CCCc1ccccc1 [Compound 80, N-octyl-cis-3-[(4-phenylbutanoyl)thio]acrylamide] | 0 | > 250 | 75 |  | 50 |  |  | 85 |  |  |  | pest or weed control at 200 ppm ([2]; 120 h, read-out: % Control RSB): 50%; pest or weed control at 200 ppm (Phytophthora infestans; read-out: % Control TLB, application rate 200 ppm): 100%; pest or weed control at 200 ppm [5, 9]: 0%
5 | CCCCCCCCNC(=O)/C=C\SC(=O)/C=C/C(=O)OCC [Compound 57, N-octyl-cis-3-[(trans-3-ethoxycarbonyl-2-propenoyl)thio]acrylamide] | 25 | > 250 | 90 | 90 | 75 |  |  | 70 |  |  |  | pest or weed control at 200 ppm ([2]; 120 h, read-out: % Control RSB): 0%; pest or weed control at 12 ppm [5, 9]: 50%
6 | CCCCCC#CC(=O)S/C=C\C(=O)NCCCCCCCC [Compound 86, N-octyl-cis-3-[(2-octynoyl)thio]acrylamide] | 50 | > 250 |  | 90 | 0 |  |  |  |  |  |  | pest or weed control at 200 ppm ([2]; 120 h, read-out: % Control RSB): 0%; pest or weed control at 100 ppm [3, 7]: 0%; pest or weed control at 200 ppm [4]: 85%; pest or weed control at 200 ppm [5, 9]: 0%
7 | CCCCCCCCNC(=O)/C=C\SC(=O)C(=O)OC [Compound 30, N-octyl-cis-3-(methyloxalylthio)acrylamide] |  | > 250 | 75 |  |  |  | 0 | 70 | 80 | 0 | 0 | pest or weed control at 25 ppm [1, 6]: 50%
8 | CCCCCCCCNC(=O)/C=C\SC(=O)c1cccc(CCl)c1 [Compound 22, N-octyl-cis-3-[(3-(chloromethyl)benzoyl)thio]acrylamide] |  | > 250 | 75 |  |  | 0 | 0 | 99 |  | 0 | 0 | pest or weed control at 25 ppm (Phytophthora infestans): 95%
9 | CCCCCCCCNC(=O)/C=C\SC(=O)COC [Compound 87, N-octyl-cis-3-(methoxyacetylthio)acrylamide] | 80 | > 250 |  | 90 |  |  |  |  |  |  |  | pest or weed control at 200 ppm ([2]; 120 h, read-out: % Control RSB): 0%; pest or weed control at 10 ppm [3, 7]: 50%; pest or weed control at 200 ppm [4]: 100%; pest or weed control at 200 ppm (Piricularia oryzae; read-out: % Control RB): 95%; pest or weed control at 12 ppm [5, 9]: 50%
10 | CCCCCCCCNC(=O)/C=C\SC(=O)Cc1ccccc1 [Compound 12, N-octyl-cis-3-(phenylacetylthio)acrylamide] |  | > 250 | 90 |  | 90 | 0 | 0 | 85 | 90 |  | 0 | 
11 | C/C=C/C=C/C(=O)S/C=C\C(=O)NCCCCCCCC [Compound 59, N-octyl-cis-3-[(trans,trans-2,4-hexadienoyl)thio]acrylamide] | 0 | > 250 | 50 | 80 | 0 |  |  | 70 |  |  |  | pest or weed control at 50 ppm ([2]; 120 h, read-out: % Control RSB): 50%; pest or weed control at 200 ppm [5, 9]: 0%
12 | CCCCCCCCNC(=O)/C=C\SC(=O)c1ccco1 [Compound 15, N-octyl-cis-3-(2-furoylthio)acrylamide] |  | > 250 | 90 |  |  | 95 | 0 | 50 |  |  | 0 | pest or weed control at 100 ppm (Phytophthora infestans; [11]): 95%; pest or weed control at 100 ppm (Piricularia oryzae; read-out: % Control RB): 100%
13 | CCCCCCCCNC(=O)/C=C\SC(=O)C(C)(C)C [Compound 25, N-octyl-cis-3-[(1,1-dimethylpropanoyl)thio]acrylamide] |  | > 250 |  |  |  | 0 | 0 | 85 |  | 0 | 0 | pest or weed control at 100 ppm [3, 7]: 90%; pest or weed control at 100 ppm (Phytophthora infestans; [11]): 100%
14 | CCCCCCCCNC(=O)/C=C\SC(=O)CCC(=O)OCC [Compound 52, N-octyl-cis-3-[(3-ethoxycarbonylpropanoyl)thio]acrylamide] |  | > 250 | 90 |  | 0 | 0 | 0 | 70 | 80 |  | 0 | 
15 | CCCCCCCCNC(=O)/C=C\SC(=O)c1cccnc1Cl [Compound 6, N-octyl-cis-3-[3-(2-chloropyridine)carbonylthio]acrylamide] |  | > 250 | 90 |  |  | 0 | 0 | 85 | 90 | 50 | 0 | 
16 | CCCCCCCCNC(=O)/C=C\SC(=O)CCC(=O)OC [Compound 51, N-octyl-cis-3-[(3-methoxycarbonylpropanoyl)thio]acrylamide] |  | > 250 | 90 |  | 0 | 0 |  | 85 | 80 |  | 0 | pest or weed control at 25 ppm ([2]; 120 h, read-out: % Control RSB): 90%
17 | CCCCCCCCNC(=O)/C=C\SC(=O)c1cc(Cl)sc1Cl [Compound 18, N-octyl-cis-3-[(2,5-dichloro-3-thiophene)carbonylthio]acrylamide] |  | > 250 | 50 |  |  | 0 | 0 | 70 |  | 50 | 0 | pest or weed control at 25 ppm (Phytophthora infestans): 100%
18 | CCCCCCCCNC(=O)/C=C\SC(=O)c1ccc(F)cc1 [Compound 3, N-octyl-cis-3-[(4-fluorobenzoyl)thio]acrylamide] |  | > 250 | 75 |  |  | 0 | 0 | 85 | 90 | 80 | 0 | 
19 | CCCCCCCCNC(=O)/C=C\SC(=O)c1cccnc1 [Compound 55, N-octyl-cis-3-[(3-pyridine)carbonylthio]acrylamide] |  | > 250 | 90 |  | 0 | 0 | 0 |  |  |  | 50 | pest or weed control at 12 ppm [4]: 70%; pest or weed control at 100 ppm (Phytophthora infestans; [11]): 95%
20 | CCCCCCCCNC(=O)C=CSC(CO)COc1ccccc1 (stereo not drawn) [Compound 40, N-octyl-cis-3-[(1-hydroxy-3-phenoxy-2-propane)thio]acrylamide] |  |  |  |  |  |  |  |  |  |  |  | % Control WLR ([1]; in vivo): 0 % Control; MIC Ps.fl (Pseudomonas fluorescens): > 250 Ppm; % Control RSB ([2]; in vivo): 0 % Control; % Control WSR ([3]; application rate 200 ppm): 75 % Control; % Control CDM ([4]; in vivo): 85 % Control; % Control TLB (Phytophthora infestans; application rate 100 ppm): 95 % Control; % Control RB (Piricularia oryzae; in vivo): 75 % Control; % Control WPM ([5]; in vivo): 50 % Control
